Data taken from patent US9988430B2, “Stable GLP-1 based GLP-1/glucagon receptor co-agonists” (Novo Nordisk A/S, priority 2014, dated 2018).
*1 amine or outer side, *2 acyl side, *3 side chain or, on linkers, in order; H or OH if unused. Where a SMILES comes first, the peptide text is derived from it. Side-chain parts run from the residue outwards. [ ]: non-standard residue; d: D form. The star is where a group is joined. C18 diacid = O=C(O)CCCCCCCCCCCCCCCCC(=O)*; γGlu = O=C(O)[C@H](CCC(=O)[*:2])N[*:1]; Desaminohistidyl = O=C(CCc1c[nH]cn1)*; AEEA = NCCOCCOCC(=O)O; Aib = CC(C)(N)C(=O)O

Tests used:
[1] = molecular target: T1, human GLP-1 receptor (Homo sapiens, UniProt P43220); test: Assay (II)(a): GLP-1 receptor binding, [125I]GLP-1 displacement, SPA on BHK membranes; settings: displacement of [125I]GLP-1, membranes with human GLP-1 receptor; read-out: IC50 GLP-1R
T1 construct: expressed in transfected cells; host or cells: membranes of BHK cells, parent line BHKTS13, clone FCW467-12A
How it was run: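 Membranes from BHK cells expressing human GLP-1 receptor with WGA SPA beads, [125I]GLP-1(7-36)NH2 (480 pM added solution) and compound in HEPES pH 7.4 buffer with EGTA, MgCl2, Tween 20. Incubated 2 h at 30° C; SPA counts fitted by non-linear regression to IC50 in nM.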

[2] = Assay (III): ThT fibrillation assay for physical stability; format: physicochemical; settings: pH 7.5, 10 mM HEPES buffer, 37° C., shaking 960 rpm
Description: Assay (III): ThT Fibrillation Assay for the Assessment of Physical Stability of Peptide Compositions
The purpose of this assay is to assess the physical stability of the GLP-1 derivatives of the invention in aqueous solutions.
Low physical stability of a peptide may lead to amyloid fibril formation, which is observed as well-ordered, thread-like macromolecular structures in the sample, which eventually may lead to gel formation. This has traditionally been measured by visual inspection of the sample. However, that kind of measurement is very subjective and depending on the observer. Therefore, the application of a small molecule indicator probe is much more advantageous. Thioflavin T (ThT) is such a probe and has a distinct fluorescence signature when binding to fibrils [Naiki et al. (1989) Anal. Biochem. 177, 244-249; LeVine (1999) Methods. Enzymol. 309, 274-284]. […]
Here, as depicted in FIG. 1, F is the ThT fluorescence at the time t. The constant t0 is the time needed to reach 50% of maximum fluorescence. The two important parameters describing fibril formation are the lag-time calculated by t0−2τ and the apparent rate constant kapp 1/τ. […]
Incubation at given temperature, shaking and measurement of the ThT fluorescence emission were done in a Fluoroskan Ascent FL fluorescence platereader (Thermo Labsystems). […]

[3] = molecular target: T1, human GLP-1 receptor; test: Assay (I)(a): GLP-1 receptor potency, CRE luciferase reporter gene assay in BHK cells; format: cell-based; settings: BHK cells expressing human GLP-1 receptor, read-out: EC50 GLP-1R
How it was run: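 BHK cells (clone FCW467-12A/KZ10-1), 5×10EE3/well, exposed 3 h at 37° C to compound at 1×10EE-13 to 1×10EE-6 M final in medium with 2% ovalbumin and 0.2% Pluronic F-68. Luciferase luminescence read; EC50 (pM) from four-parameter fit.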

[4] = molecular target: T2, human glucagon receptor (Homo sapiens, UniProt P47871); test: Assay (I)(b): glucagon receptor potency, CRE luciferase reporter gene assay in BHK cells; format: cell-based; settings: BHK cells expressing human glucagon receptor, read-out: EC50 GlucagonR
T2 construct: expressed in transfected cells; host or cells: membranes of BHK cells, clone BHK hGCGR A3*25
Procedure: Assay (I): GLP-1 and Glucagon Receptor Potency The purpose of this example was to test the activity or potency, of the GLP-1 derivatives of the invention, in vitro. The in vitro potency is the measure of human GLP-1 receptor (GLP-1R) or glucagon receptor (glucagonR) activation, respectively, in a whole cell assay. In vitro potency was determined by measuring the cellular response of human GLP-1 or glucagon receptor activation, respectively, in a reporter gene assay. The assay was performed in a BHK cell line that stably expresses either the human GLP-1 receptor or the human glucagon receptor and comprises the DNA for the cAMP response element (CRE) coupled to a promoter and the gene for firefly luciferase (CRE luciferase). […] When assay incubation was completed, the luciferase substrate (luciferin) was added and the enzyme converted luciferin to oxyluciferin and produces bioluminescence. The luminescence was measured as the readout for the assay. […] The cells were counted and adjusted to 5×10EE3 cells/50 μl (1×10EE5 cells/ml) in Assay Medium. […] Each assay plate was read in a Perkin Elmer TopCount NXT instrument. […] EC50 values were calculated by the software and reported in pM.

T1 sequence (P43220 24-463): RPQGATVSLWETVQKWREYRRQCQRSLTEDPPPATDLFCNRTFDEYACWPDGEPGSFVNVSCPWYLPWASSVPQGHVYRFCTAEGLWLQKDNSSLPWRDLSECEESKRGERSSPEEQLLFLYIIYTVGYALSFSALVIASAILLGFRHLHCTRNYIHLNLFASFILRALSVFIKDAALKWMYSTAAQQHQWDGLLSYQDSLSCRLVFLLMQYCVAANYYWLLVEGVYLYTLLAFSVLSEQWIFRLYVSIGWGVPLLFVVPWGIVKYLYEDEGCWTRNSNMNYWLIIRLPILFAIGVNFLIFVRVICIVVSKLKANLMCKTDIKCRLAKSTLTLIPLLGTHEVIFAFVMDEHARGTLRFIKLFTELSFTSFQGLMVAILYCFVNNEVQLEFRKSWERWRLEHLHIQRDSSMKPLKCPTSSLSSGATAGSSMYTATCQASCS
T2 sequence (P47871 26-477): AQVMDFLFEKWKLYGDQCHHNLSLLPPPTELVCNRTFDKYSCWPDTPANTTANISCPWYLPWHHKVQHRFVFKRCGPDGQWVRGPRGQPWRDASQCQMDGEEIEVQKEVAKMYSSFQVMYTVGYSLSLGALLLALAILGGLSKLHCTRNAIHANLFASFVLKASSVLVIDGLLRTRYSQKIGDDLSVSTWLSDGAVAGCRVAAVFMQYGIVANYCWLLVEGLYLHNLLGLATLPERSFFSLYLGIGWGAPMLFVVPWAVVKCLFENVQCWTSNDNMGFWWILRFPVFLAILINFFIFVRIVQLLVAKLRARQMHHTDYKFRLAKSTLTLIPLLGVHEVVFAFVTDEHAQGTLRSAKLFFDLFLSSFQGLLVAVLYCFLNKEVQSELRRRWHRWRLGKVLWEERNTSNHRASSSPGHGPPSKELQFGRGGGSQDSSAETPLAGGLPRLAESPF

| IC50 [1] | ThT assay pH 7.5: Lag time [2] | EC50 [3] | EC50 [4] | SMILES |
| --- | --- | --- | --- | --- |
| 500 pM | 45.0 h | – | – | CC[C@H](C)[C@H](NC(=O)[C@H](Cc1ccccc1)NC(=O)[C@H](CCC(=O)O)NC(=O)[C@H](CCCNC(=N)N)NC(=O)[C@H](C)NC(=O)[C@H](C)NC(=O)[C@H](CCC(N)=O)NC(=O)[C@H](CCCCNC(=O)CC[C@H](NC(=O)CC[C@H](NC(=O)COCCOCCNC(=O)COCCOCCNC(=O)CC[C@H](NC(=O)CCCCCCCCCCCCCCCCC(=O)O)C(=O)O)C(=O)O)C(=O)O)NC(=O)[C@H](CCC(=O)O)NC(=O)[C@H](CC(C)C)NC(=O)[C@H](Cc1ccc(O)cc1)NC(=O)[C@H](CCCCN)NC(=O)[C@H](CO)NC(=O)[C@@H](NC(=O)[C@H](CC(=O)O)NC(=O)[C@H](CO)NC(=O)[C@@H](NC(=O)[C@H](Cc1ccccc1)NC(=O)[C@@H](NC(=O)CNC(=O)[C@H](Cc1c[nH]cn1)NC(=O)C(C)(C)NC(=O)CCc1c[nH]cn1)[C@@H](C)O)[C@@H](C)O)C(C)C)C(=O)N[C@@H](C)C(=O)N[C@@H](Cc1c[nH]c2ccccc12)C(=O)N[C@@H](CC(C)C)C(=O)N[C@@H](CC(C)C)C(=O)N[C@@H](CCCCN)C(=O)NCC(=O)NCC(=O)NCC(=O)O [Example 13, N^ε22-[(4S)-4-carboxy-4-[[(4S)-4-carboxy-4-[[2-[2-[2-[[2-[2-[2-[[(4S)-4-carboxy-4-(17-carboxyheptadecanoylamino)butanoyl]amino]ethoxy]ethoxy]acetyl]amino]ethoxy]ethoxy]acetyl]amino]butanoyl]amino]butanoyl]-[Imp7,Aib8,His9,Lys18,Lys22,Arg26,Leu33,Gly36]-GLP-1-(7-37)-peptide] (Desaminohistidyl-[Aib]HGTFTSDVSKYLEK([γGlu-γGlu-AEEA-AEEA-γGlu-C18 diacid])QAAREFIAWLLKGGG-OH) |
| – | – | 7 pM | 143 pM | CC[C@H](C)[C@H](NC(=O)[C@H](Cc1ccccc1)NC(=O)[C@H](CCCCNC(=O)COCCOCCNC(=O)COCCOCCNC(=O)CC[C@H](NC(=O)CC[C@H](NC(=O)CC[C@H](NC(=O)CCCCCCCCCCCCCCCCC(=O)O)C(=O)O)C(=O)O)C(=O)O)NC(=O)[C@H](CCCNC(=N)N)NC(=O)[C@H](C)NC(=O)[C@H](C)NC(=O)[C@H](CCC(N)=O)NC(=O)[C@H](CCC(=O)O)NC(=O)[C@H](CCC(=O)O)NC(=O)[C@H](CC(C)C)NC(=O)[C@H](Cc1ccc(O)cc1)NC(=O)[C@H](CCCNC(=N)N)NC(=O)[C@H](CO)NC(=O)[C@@H](NC(=O)[C@H](CC(=O)O)NC(=O)[C@H](CO)NC(=O)[C@@H](NC(=O)[C@H](Cc1ccccc1)NC(=O)[C@@H](NC(=O)CNC(=O)[C@H](Cc1c[nH]cn1)NC(=O)C(C)(C)NC(=O)CCc1c[nH]cn1)[C@@H](C)O)[C@@H](C)O)C(C)C)C(=O)N[C@@H](C)C(=O)N[C@@H](Cc1c[nH]c2ccccc12)C(=O)N[C@@H](CC(C)C)C(=O)N[C@@H](CC(C)C)C(=O)N[C@@H](CCCNC(=N)N)C(=O)O [Example 19, N^ε27-[2-[2-[2-[[2-[2-[2-[[(4S)-4-carboxy-4-[[(4S)-4-carboxy-4-[[(4S)-4-carboxy-4-(17-carboxyheptadecanoylamino)butanoyl]amino]butanoyl]amino]butanoyl]amino]ethoxy]ethoxy]acetyl]amino]ethoxy]ethoxy]acetyl]-[Imp7,Aib8,His9,Arg18,Glu22,Arg26,Lys27,Leu33,Arg34]-GLP-1-(7-34)-peptide] (Desaminohistidyl-[Aib]HGTFTSDVSRYLEEQAARK([AEEA-AEEA-γGlu-γGlu-γGlu-C18 diacid])FIAWLLR-OH) |
